In PubChem BioAssay (NCI) one finds TGI data, which are given here for 13 molecules.

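Following 48 hours of exposure in 96-well plates, responses at five concentrations were used to interpolate endpoints linearly. TGI: concentration producing complete growth inhibition.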

Among the test systems are MDA-MB-231 breast; SN12C renal; LOX IMVI melanoma; MCF7 breast; NCI/ADR-RES ovarian; NCI-H226 lung; OVCAR-4 ovarian; UACC-62 melanoma; SK-MEL-28 melanoma; OVCAR-3 ovarian.
Holding throughout (assay): growth of human tumour cells (NCI), 48 h

Turning to `Cc1c(NC2(C)C(=O)N(/N=C/c3ccccc3)N=C2c2ccccc2)n[nH]c1-c1ccccc1` (stereo not drawn), the TGI in the test with MDA-MB-231 breast, in the test on SN12C renal, in the test on LOX IMVI melanoma, in the test on MCF7 breast, in the test with NCI/ADR-RES ovarian and in the test with NCI-H226 lung was above 100 µM each time. In addition, the TGI with OVCAR-4 ovarian, in the test on UACC-62 melanoma, in the test with SK-MEL-28 melanoma and with OVCAR-3 ovarian was above 100 µM in each case.
In the case of `CC(=O)c1cc2ccccc2n(O)c1=N`, the TGI in the test on MDA-MB-231 breast, in the test on SN12C renal, in the test with LOX IMVI melanoma, in the test on MCF7 breast, in the test with NCI/ADR-RES ovarian and in the test on NCI-H226 lung was above 100 µM throughout. In addition, the TGI in the test with OVCAR-4 ovarian, in the test on UACC-62 melanoma, with SK-MEL-28 melanoma and in the test on OVCAR-3 ovarian was above 100 µM each time.
With `CN(C)CCNc1ncnc2nc(-c3ccc4ccccc4c3)[nH]c12`, the TGI in the test on MDA-MB-231 breast, with SN12C renal, with LOX IMVI melanoma, with MCF7 breast, in the test with NCI/ADR-RES ovarian and with NCI-H226 lung was above 100 µM in each case. Moreover, the TGI with OVCAR-4 ovarian, with UACC-62 melanoma, with SK-MEL-28 melanoma and in the test on OVCAR-3 ovarian was above 100 µM throughout.
Regarding `CC(=O)OCC=C(CCl)CCC(Br)C(C)(C)Br` (mixture of isomers), the TGI in the test with MDA-MB-231 breast, in the test with SN12C renal, in the test with LOX IMVI melanoma, with MCF7 breast, with NCI/ADR-RES ovarian and in the test with NCI-H226 lung was above 10 µM throughout. The TGI in the test with OVCAR-4 ovarian, with UACC-62 melanoma, with SK-MEL-28 melanoma and in the test with OVCAR-3 ovarian was above 10 µM in each case.
On to `CC(=O)N1CCN(C23OC4(N5CCN(C(C)=O)CC5)C5C6CC(C7C6C4C72)C53)CC1` (stereo not drawn), for which the TGI in the test with MDA-MB-231 breast, in the test with SN12C renal, with LOX IMVI melanoma, with MCF7 breast, in the test with NCI/ADR-RES ovarian and in the test on NCI-H226 lung was above 100 µM throughout. For the same molecule, the TGI in the test with OVCAR-4 ovarian, with UACC-62 melanoma and in the test with OVCAR-3 ovarian was above 100 µM each time.
`COc1ccc(/C=C2\N=C(c3ccccc3)N(C3Nc4cc5c(cc4S3)NC(N3C(=O)/C(=C/c4ccc(OC)cc4)N=C3c3ccccc3)S5)C2=O)cc1` (stereo not drawn): the TGI was above 100 µM in the test on MDA-MB-231 breast; above 100 µM in the test on LOX IMVI melanoma; above 100 µM with MCF7 breast; 48 µM with NCI/ADR-RES ovarian; above 100 µM with NCI-H226 lung; above 100 µM in the test with OVCAR-4 ovarian. Also, the TGI in the test on SK-MEL-28 melanoma and with OVCAR-3 ovarian was above 100 µM each time.
For `C[C@]12CC[C@@H]3c4ccc(OC(=O)c5ccccc5)cc4CC[C@H]3[C@@H]1CC[C@@H]2Oc1c2ccccc2nc2ccccc12`, the TGI with MDA-MB-231 breast is 35.2 µM; with LOX IMVI melanoma, 15.6 µM; with MCF7 breast, 46.3 µM; with NCI/ADR-RES ovarian, above 50 µM; in the test on NCI-H226 lung, 48 µM; in the test with OVCAR-4 ovarian, above 50 µM. The TGI in the test with UACC-62 melanoma is above 50 µM; in the test on SK-MEL-28 melanoma it was 22.3 µM; with OVCAR-3 ovarian, 14.8 µM.
Consider `Nc1cc(N2CCCC2)nc(=O)n1Cc1ccccc1`, for which the TGI in the test on MDA-MB-231 breast, in the test on SN12C renal, in the test with LOX IMVI melanoma, with MCF7 breast, in the test on NCI/ADR-RES ovarian and in the test on NCI-H226 lung was above 100 µM throughout. Moreover, the TGI with OVCAR-4 ovarian was above 100 µM.
Turning to `Oc1ccc(CCc2cc(O)cc(O)c2)cc1`, the TGI in the test on MDA-MB-231 breast, in the test with SN12C renal, in the test with MCF7 breast, in the test with NCI/ADR-RES ovarian, with NCI-H226 lung and in the test with OVCAR-4 ovarian was above 100 µM each time. For the same molecule, the TGI in the test with UACC-62 melanoma, in the test on SK-MEL-28 melanoma and in the test on OVCAR-3 ovarian was above 100 µM each time.
Take `O=C(NCCCNCCNC(=O)c1cc(-c2ccccc2)nc2ccccc12)c1cc(-c2ccccc2)nc2ccccc12`: the TGI amounted to 3.52 µM in the test with MDA-MB-231 breast; 3.24 µM with SN12C renal; 2.95 µM with LOX IMVI melanoma; 3.15 µM with MCF7 breast; 4.12 µM with NCI/ADR-RES ovarian; 5.05 µM in the test with NCI-H226 lung. Besides, the figures for the TGI with OVCAR-4 ovarian, in the test on SK-MEL-28 melanoma and in the test on OVCAR-3 ovarian were 4.08 µM, 3.26 µM and 3.6 µM, respectively.
Regarding `CC(C)OP(=O)(OC(C)C)C(C(C)C)N(C)/C(F)=N/C(F)(F)F` (stereo not drawn), the TGI with MDA-MB-231 breast, with SN12C renal, in the test on LOX IMVI melanoma, in the test on MCF7 breast, with NCI/ADR-RES ovarian and with NCI-H226 lung was above 100 µM in each case. Moreover, the TGI in the test on UACC-62 melanoma, in the test on SK-MEL-28 melanoma and with OVCAR-3 ovarian was above 100 µM each time.
With `c1ccc2c(c1)nc1n2CCSC1`, the TGI in the test on MDA-MB-231 breast, in the test with SN12C renal, with LOX IMVI melanoma, in the test on MCF7 breast, in the test on NCI/ADR-RES ovarian and in the test on OVCAR-4 ovarian was above 100 µM in each case. The TGI in the test on UACC-62 melanoma, with SK-MEL-28 melanoma and in the test on OVCAR-3 ovarian was above 100 µM throughout.
As for `COc1ccc2c(c1)/c(=C/c1ccc(N(C)C)cc1)c1cc(-c3ccccc3)[n+](C)n12`, the TGI is 1.08 µM with MDA-MB-231 breast; 1.24 µM with SN12C renal; 1.51 µM in the test on LOX IMVI melanoma; 7.11 µM in the test on MCF7 breast; above 100 µM with NCI/ADR-RES ovarian; 0.785 µM in the test on NCI-H226 lung. Also, the TGI was determined as 2.83 µM in the test on OVCAR-4 ovarian, 2.01 µM with UACC-62 melanoma and 2.31 µM in the test with SK-MEL-28 melanoma.
